Among the data in patent US9144239B2, “Macrocyclic picolinamides as fungicides” (DOW AGROSCIENCES LLC, priority 2012, dated 2015) are pest or weed control values, retold here.

What all share (type): in vivo
Test [1] has as its system Uncinula necator. The test can be described thus: Fungicidal activity: grape powdery mildew (UNCINE). To be noted: Erysiphe necator, 24 h, 1 Day Protectant, read-out: Disease Control UNCINE 1 DP. The method, then: Technical grades of materials were dissolved in acetone, which were then mixed with nine volumes of water containing 110 ppm Triton X-100. The fungicide solutions were applied onto wheat seedlings using an automated booth sprayer to run-off. All sprayed plants were allowed to air dry prior to further handling. Wheat plants (variety Yuma) were grown from seed in a greenhouse in 50% mineral soil/50% soil-less Metro mix until the first leaf was fully emerged, with 7-10 seedlings per pot. These plants were inoculated with an aqueous spore suspension of Septoria tritici either prior to or after fungicide treatments. After inoculation the plants were kept in 100% relative humidity (one day in a dark dew chamber followed by two to three days in a lighted dew chamber at 20° C.) to permit spores to germinate and infect the leaf. The plants were then transferred to a greenhouse set at 20° C. for disease to develop. When disease symptoms were fully expressed on the 1st leaves of untreated plants, infection levels were assessed on a scale of 0 to 100 percent disease severity. Percent disease control was calculated using the ratio of disease severity on treated plants relative to untreated plants. Evaluation of Fungicidal Activity: Grape Powdery Mildew (Uncinula necator; Bayer Code […]) Grape seedlings (variety Carignane) were grown in soil-less Metro mix, with one plant per pot, and used in the test when approximately one month old. Plants were inoculated 24 hr after fungicide treatment by shaking spores from infected leaves over test plants. Plants were maintained in a greenhouse set at 20° C. until disease was fully developed. Fungicide formulation, application and disease assessment on the sprayed leaves followed the procedures as described in the Example A.

The test system of test [2] is Mycosphaerella graminicola; anamorph: Septoria tritici. Description: Fungicidal activity: leaf blotch of wheat (SEPTTR), wheat seedlings. To be noted: Zymoseptoria tritici, 100 ppm, wheat. A digest of the protocol:
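Percent control derives from disease severity on treated versus untreated first leaves, rated 0–100% when symptoms were fully expressed on untreated plants. Yuma seedlings were inoculated with S. tritici spores either before or after spraying to run-off. The spray was acetone solution diluted 1:9 in water with 110 ppm Triton X-100. Infection took place in 100% RH dew chambers, then a 20 °C greenhouse.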

For test [3], the system named is Venturia inaequalis. Description: Fungicidal activity: apple scab (VENTIN). To be noted: 24 h, 1 Day Protectant, read-out: Disease Control VENTIN 1 DP. The method, then: Technical grades of materials were dissolved in acetone, which were then mixed with nine volumes of water containing 110 ppm Triton X-100. The fungicide solutions were applied onto wheat seedlings using an automated booth sprayer to run-off. All sprayed plants were allowed to air dry prior to further handling. Wheat plants (variety Yuma) were grown from seed in a greenhouse in 50% mineral soil/50% soil-less Metro mix until the first leaf was fully emerged, with 7-10 seedlings per pot. These plants were inoculated with an aqueous spore suspension of Septoria tritici either prior to or after fungicide treatments. After inoculation the plants were kept in 100% relative humidity (one day in a dark dew chamber followed by two to three days in a lighted dew chamber at 20° C.) to permit spores to germinate and infect the leaf. The plants were then transferred to a greenhouse set at 20° C. for disease to develop. When disease symptoms were fully expressed on the 1st leaves of untreated plants, infection levels were assessed on a scale of 0 to 100 percent disease severity. Percent disease control was calculated using the ratio of disease severity on treated plants relative to untreated plants. Evaluation of Fungicidal Activity: Apple Scab (Venturia inaequalis; Bayer Code […]) Apple seedlings (variety McIntosh) were grown in soil-less Metro mix, with one plant per pot. Seedlings with two expanding young leaves at the top (older leaves at bottom of the plants were trimmed) were used in the test. Plants were inoculated with a spore suspension of Venturia inaequalis 24 hr after fungicide treatment and kept in a 22° C. dew chamber with 100% RH for 48 hr, and then moved to a greenhouse set at 20° C. for disease to develop. Fungicide formulation, application and disease assessment on the sprayed leaves followed the procedures as described in the Example A.

The subject of test [4] is Puccinia triticina; synonym: Puccinia recondita f. sp. tritici. Description: Fungicidal activity: wheat brown rust (PUCCRT), wheat seedlings. To be noted: 100 ppm, wheat. A digest of the protocol:
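Wheat (Yuma) seedlings at first-leaf stage, inoculated with Puccinia triticina spores before or after treatment, held overnight in dark dew room at 22° C, 100% RH, then greenhouse at 24° C. Acetone solutions diluted with nine volumes water containing 110 ppm Triton X-100, sprayed to run-off. Percent disease control derived from severity (0–100%) relative to untreated plants.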

The test system is the same in test [5]. The test can be described thus: Fungicide mobility (dropline mobility test): wheat brown rust (PUCCRT). As to conditions: 1 ug/leaf. The procedure, abridged: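 A 2 μl drop of formulated compound (EC blank, 110 ppm Triton X-100 water) was applied to a line 5 cm from the tip of primary leaves of "Yuma" wheat seedlings, 6 replicates. Inoculation with PUCCRT was done 1 day after or 3 days before application. Once disease was fully expressed on controls, the acropetal disease-free zone was measured as percent of line-to-tip distance.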

Test [6] relates to Magnaporthe grisea; anamorph: Pyricularia oryzae. The test can be described thus: whole plant or invertebrate. As to conditions: 24 h, read-out: Disease Control PYRIOR 1 DP.
In test [7] the test system is Blumeria graminis f.sp. hordei; synonym: Erysiphe graminis f.sp. hordei. Description: Fungicidal activity: barley powdery mildew (ERYSGH). To be noted: 24 h, 1 Day Protectant, read-out: Disease Control ERYSGH 1DP. Here is the method: Technical grades of materials were dissolved in acetone, which were then mixed with nine volumes of water containing 110 ppm Triton X-100. The fungicide solutions were applied onto wheat seedlings using an automated booth sprayer to run-off. All sprayed plants were allowed to air dry prior to further handling. Wheat plants (variety Yuma) were grown from seed in a greenhouse in 50% mineral soil/50% soil-less Metro mix until the first leaf was fully emerged, with 7-10 seedlings per pot. These plants were inoculated with an aqueous spore suspension of Septoria tritici either prior to or after fungicide treatments. After inoculation the plants were kept in 100% relative humidity (one day in a dark dew chamber followed by two to three days in a lighted dew chamber at 20° C.) to permit spores to germinate and infect the leaf. The plants were then transferred to a greenhouse set at 20° C. for disease to develop. When disease symptoms were fully expressed on the 1st leaves of untreated plants, infection levels were assessed on a scale of 0 to 100 percent disease severity. Percent disease control was calculated using the ratio of disease severity on treated plants relative to untreated plants. Evaluation of Fungicidal Activity: Barley Powdery Mildew (Blumeria graminis f.sp. hordei; Synonym: Erysiphe graminis f.sp. hordei; Bayer Code […]) Barley seedlings (variety Harrington) were propagated in soil-less Metro mix, with each pot having 8 to 12 plants, and used in the test when first leaf was fully emerged. Test plants were inoculated by dusting with infected stock plants 24 hr after fungicide treatments. After inoculation the plants were kept in a greenhouse set at 20° C. for disease to develop. Fungicide formulation, application and disease assessment on the sprayed leaves followed the procedures as described in the Example A.

Test [8] concerns Cercospora beticola. The test can be described thus: Fungicidal activity: leaf spot of sugar beets (CERCBE). As to conditions: 24 h, 1 Day Protectant, sugar beet, read-out: Disease Control CERCBE 1DP. The method, then: Technical grades of materials were dissolved in acetone, which were then mixed with nine volumes of water containing 110 ppm Triton X-100. The fungicide solutions were applied onto wheat seedlings using an automated booth sprayer to run-off. All sprayed plants were allowed to air dry prior to further handling. Wheat plants (variety Yuma) were grown from seed in a greenhouse in 50% mineral soil/50% soil-less Metro mix until the first leaf was fully emerged, with 7-10 seedlings per pot. These plants were inoculated with an aqueous spore suspension of Septoria tritici either prior to or after fungicide treatments. After inoculation the plants were kept in 100% relative humidity (one day in a dark dew chamber followed by two to three days in a lighted dew chamber at 20° C.) to permit spores to germinate and infect the leaf. The plants were then transferred to a greenhouse set at 20° C. for disease to develop. When disease symptoms were fully expressed on the 1st leaves of untreated plants, infection levels were assessed on a scale of 0 to 100 percent disease severity. Percent disease control was calculated using the ratio of disease severity on treated plants relative to untreated plants. Evaluation of Fungicidal Activity: Leaf Spot of Sugar Beets (Cercospora beticola; Bayer Code CERCBE) Sugar beet plants (variety HH88) were grown in soil-less Metro mix and trimmed regularly to maintain a uniform plant size prior to test. Plants were inoculated with a spore suspension 24 hr after fungicide treatments. Inoculated plants were kept in a dew chamber at 22° C. for 48 hr then incubated in a greenhouse set at 24° C. under a clear plastic hood with bottom ventilation until disease symptoms were fully expressed. Fungicide formulation, application and disease assessment on the sprayed leaves followed the procedures as described in the Example A.

For test [9], the system named is Leptosphaeria nodorum. The test can be described thus: Fungicidal activity: wheat glume blotch (LEPTNO). To be noted: Parastagonospora nodorum, 24 h, 1 Day Protectant, read-out: Disease Control LEPTNO 1 DP. Here is the method:
Technical grades of materials were dissolved in acetone, which were then mixed with nine volumes of water containing 110 ppm Triton X-100. The fungicide solutions were applied onto wheat seedlings using an automated booth sprayer to run-off. All sprayed plants were allowed to air dry prior to further handling. Wheat plants (variety Yuma) were grown from seed in a greenhouse in 50% mineral soil/50% soil-less Metro mix until the first leaf was fully emerged, with 7-10 seedlings per pot. These plants were inoculated with an aqueous spore suspension of Septoria tritici either prior to or after fungicide treatments. After inoculation the plants were kept in 100% relative humidity (one day in a dark dew chamber followed by two to three days in a lighted dew chamber at 20° C.) to permit spores to germinate and infect the leaf. The plants were then transferred to a greenhouse set at 20° C. for disease to develop. When disease symptoms were fully expressed on the 1st leaves of untreated plants, infection levels were assessed on a scale of 0 to 100 percent disease severity. Percent disease control was calculated using the ratio of disease severity on treated plants relative to untreated plants. Evaluation of Fungicidal Activity: Wheat Glume Blotch (Leptosphaeria nodorum; Bayer Code […]) Wheat plants (variety Yuma) were grown from seed in a greenhouse in 50% mineral soil/50% soil-less Metro mix until the first leaf was fully emerged, with 7-10 seedlings per pot. These plants were inoculated with an aqueous spore suspension of Leptosphaeria nodorum 24 hr after fungicide treatments. After inoculation the plants were kept in 100% relative humidity (one day in a dark dew chamber followed by two days in a lighted dew chamber at 20° C.) to permit spores to germinate and infect the leaf. The plants were then transferred to a greenhouse set at 20° C. for disease to develop. Fungicide formulation, application and disease assessment followed the procedures as described in the Example A.

Where [10] appears, read: 24 h, 1 Day Protectant, read-out: Disease Control SEPTTR 1DP.
The mark [11] stands for this setting: 72 h, 3 Day Curative, read-out: Disease Control SEPTTR 3DC.
Setting [12] is: 24 h, 1 Day Protectant, read-out: Disease Control PUCCRT 1DP.
Where [13] appears, read: 72 h, 3 Day Curative, read-out: Disease Control PUCCRT 3DC.

SMILES strings stand for the structures. Like-named read-outs stand apart in the source and are kept apart here.

`COc1ccnc(C(=O)N[C@H]2COC[C@H](OCc3ccccc3)[C@@H](OCc3ccccc3)COC2=O)c1OCOC(=O)C(C)C` [Compound 6]: the pest or weed control at 100 ppm in test [1] was in the range of 0 to 80%; in test [2] (setting [10]) it was 0 to 80%; in test [2] (setting [11]) it was 0 to 80%; in test [3] it was 0 to 80%; in test [4] (setting [12]), 80 to 100%.
For the molecule `CCCCO[C@H]1[C@H](C)OC(=O)[C@@H](NC(=O)c2nccc(OC)c2OCOC(C)=O)COC[C@@H]1OCc1ccccc1` [Compound 34], the pest or weed control at 100 ppm in [1], in [2] (setting [10]), in test [2] (setting [11]), in [3], in test [4] (setting [12]) and in test [4] (setting [13]) was 80 to 100% in each case. In addition, the pest or weed control at 1 µg/leaf in test [5] (24 h, 1 Day Protectant Mobility, read-out: Dropline Mobility Test PUCCRT 1DPM) is 0 to 80%; in test [5] (72 h, 3 Day Curative Mobility, read-out: Dropline Mobility Test PUCCRT 3DCM) it was 80 to 100%.
Consider `CCCCO[C@H]1COC[C@H](NC(=O)c2nccc(OC)c2OCOC(C)=O)C(=O)O[C@@H](C)[C@@H]1OCc1ccccc1` [Compound 35], for which the pest or weed control at 100 ppm in test [1] was 0 to 80%; in test [2] (setting [10]) it was 80 to 100%; in test [2] (setting [11]) it was 80 to 100%; in test [3] it was 0 to 80%; in test [4] (setting [12]), 80 to 100%; in [4] (setting [13]), 80 to 100%.
On to `CCCCO[C@H]1COC[C@H](NC(=O)c2nccc(OC)c2OCOC(C)=O)C(=O)O[C@@H](C)[C@@H]1OCCC` [Compound 45], for which the pest or weed control at 100 ppm in test [1] lay in the range of 80 to 100%; in [2] (setting [10]), 80 to 100%; in [2] (setting [11]) it was 80 to 100%; in test [3] it was 0 to 80%; in test [4] (setting [12]) it was 80 to 100%; in test [4] (setting [13]) it was 80 to 100%.
For `CCCCO[C@H]1COC[C@H](NC(=O)c2nccc(OC)c2OCOC(C)=O)C(=O)O[C@@H](C)[C@@H]1OC(=O)C(C)C` [Compound 47], the pest or weed control at 100 ppm was in the range of 0 to 80% in test [1]; 80 to 100% in test [2] (setting [10]); 80 to 100% in test [2] (setting [11]); 80 to 100% in [3]; 80 to 100% in test [6]; 80 to 100% in test [4] (setting [12]). Besides, in test [4] (setting [13]), the pest or weed control at 100 ppm is 80 to 100%.
With `COc1ccnc(C(=O)N[C@H]2COC[C@H](Oc3ccc(F)cc3)[C@@H](OCC(C)C)[C@H](C)OC2=O)c1OCOC(C)=O` [Compound 228], the pest or weed control at 100 ppm fell in the range of 0 to 80% in test [7]; 80 to 100% in test [2] (setting [10]); 80 to 100% in test [2] (setting [11]); 0 to 80% in [8]; 80 to 100% in test [9]; 80 to 100% in [4] (setting [12]). The pest or weed control at 100 ppm in test [4] (setting [13]) is 80 to 100%.
